According to patent publication US10499642B2, “Isoxazoline-substituted benzamides and analogues as insecticides” (SYNGENTA PARTICIPATIONS AG, priority 2015, dated 2019):
Read-outs that look alike come from different tables or passages of the source.

Columns and labels:
Format in all cases: in vivo
[1] = system: Spodoptera littoralis; experiment: Spodoptera littoralis (Egyptian cotton leaf worm) cotton leaf disc test; settings: foliar, 72 h, read-out: control (at least one of mortality, anti-feedant effect, and growth inhibition)
Summary of the method: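 Cotton leaf discs on agar were sprayed with aqueous dilutions of 10′000 ppm DMSO stocks, dried and infested with five L1 larvae. Mortality, anti-feedant effect and growth inhibition were scored against untreated samples 3 days after infestation. Control = any of these higher than untreated.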

[2] = system: Plutella xylostella; experiment: Plutella xylostella (diamond back moth) artificial diet test; settings: 120 h, read-out: effect in at least one of the two categories (mortality or growth inhibition)
Summary of the method: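 Artificial diet treated with aqueous compound solutions made from DMSO stocks, dried, then infested with L2 larvae (10 to 15 per well). Mortality and growth inhibition scored versus untreated controls 5 days after infestation. Application rate 200 ppm.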

[3] = system: Tetranychus urticae; experiment: Tetranychus urticae (two-spotted spider mite) bean leaf disc test; settings: foliar, 192 h
Protocol: Tetranychus urticae (Two-Spotted Spider Mite):
Bean leaf discs on agar in 24-well microtiter plates were sprayed with aqueous test solutions prepared from 10′000 ppm DMSO stock solutions. After drying the leaf discs were infested with a mite population of mixed ages. The samples were assessed for mortality on mixed population (mobile stages) 8 days after infestation.

[4] = system: Thrips tabaci; experiment: Thrips tabaci (onion thrips) sunflower leaf disc test; settings: foliar, 144 h
Protocol: Thrips tabaci (Onion Thrips):
Sunflower leaf discs were placed on agar in 24-well microtiter plates and sprayed with aqueous test solutions prepared from 10′000 ppm DMSO stock solutions. After drying the leaf discs were infested with a thrips population of mixed ages. The samples were assessed for mortality 6 days after infestation.

[5] = system: Diabrotica Balteata; experiment: Diabrotica balteata (corn root worm) maize sprout test; settings: 96 h, read-out: effect in at least one of the two categories (mortality or growth inhibition)
Summary of the method: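 Maize sprouts on agar were sprayed with aqueous test solutions made from 10′000 ppm DMSO stocks, dried, then infested with 6 to 10 L2 larvae per well. Mortality and growth inhibition versus untreated samples were assessed 4 days after infestation; application rate 200 ppm.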

[6] = system: Myzus persicae; experiment: Myzus persicae (green peach aphid) sunflower leaf disc test; settings: foliar, 144 h
Protocol: Myzus persicae (Green Peach Aphid):
Sunflower leaf discs were placed on agar in a 24-well microtiter plate and sprayed with test solutions at an application rate of 200 ppm. After drying, the leaf discs were infested with an aphid population of mixed ages. After an incubation period of 6 days after treatment, samples were checked for mortality. The following compounds gave at least 80% mortality of Myzus persicae: […]

Cc1cc(C2=NO[C@@](c3cc(Cl)c(Cl)c(Cl)c3)(C(F)(F)F)C2)ccc1C(=O)NC1CC(OCc2ccccc2)=NO1 (stereo partly drawn) [Compound A110, N-(3-benzyloxy-4,5-dihydroisoxazol-5-yl)-2-methyl-4-[(5S)-5-(3,4,5-trichlorophenyl)-5-(trifluoromethyl)-4H-isoxazol-3-yl]benzamide]
≥ 80%: percent control (mortality, anti-feedant effect or growth inhibition) at 200 ppm [1] | percent effect (mortality or growth inhibition) at 200 ppm [2] | mortality at 200 ppm [3] | mortality at 200 ppm [4] | percent effect (mortality or growth inhibition) at 200 ppm [5] | mortality at 200 ppm [6]

CCOC1=NOC(NC(=O)c2ccc(C3=NO[C@@](c4cc(Cl)c(F)c(Cl)c4)(C(F)(F)F)C3)cc2Cl)C1 (stereo partly drawn) [Compound A064]
≥ 80%: percent control (mortality, anti-feedant effect or growth inhibition) at 200 ppm [1] | percent effect (mortality or growth inhibition) at 200 ppm [2] | mortality at 200 ppm [3] | mortality at 200 ppm [4] | percent effect (mortality or growth inhibition) at 200 ppm [5] | mortality at 200 ppm [6]

Cc1cc(C2=NO[C@@](c3cc(Cl)c(F)c(Cl)c3)(C(F)(F)F)C2)ccc1C(=O)NC1CC(OCC2CC2)=NO1 (stereo partly drawn) [Compound A083]
≥ 80%: percent control (mortality, anti-feedant effect or growth inhibition) at 200 ppm [1] | percent effect (mortality or growth inhibition) at 200 ppm [2] | mortality at 200 ppm [3] | mortality at 200 ppm [4] | percent effect (mortality or growth inhibition) at 200 ppm [5] | mortality at 200 ppm [6]

COC1=NOC(NC(=O)c2ccc(C3=NO[C@@](c4cccc(C(F)(F)F)c4)(C(F)(F)F)C3)cc2C)C1 (stereo partly drawn) [Compound A057]
≥ 80%: percent control (mortality, anti-feedant effect or growth inhibition) at 200 ppm ([1]; application rate 200 ppm, cotton leaf discs, L1 larvae, 3 days after infestation) | percent effect (mortality or growth inhibition) at 200 ppm ([2]; application rate 200 ppm, artificial diet, L2 larvae, 5 days after infestation) | mortality at 200 ppm ([3]; application rate 200 ppm, bean leaf discs, mixed population (mobile stages), 8 days after infestation, read-out: mortality) | mortality at 200 ppm ([4]; application rate 200 ppm, sunflower leaf discs, population of mixed ages, 6 days after infestation, read-out: mortality) | percent effect (mortality or growth inhibition) at 200 ppm ([5]; application rate 200 ppm, maize sprouts, L2 larvae, 4 days after infestation) | mortality at 200 ppm ([6]; application rate 200 ppm, sunflower leaf discs, population of mixed ages, 6 days after treatment, read-out: mortality)
